Assay results: paper PMC7366380, “Discovery of a Potent and Selective Covalent Inhibitor and Activity-Based Probe for the Deubiquitylating Enzyme UCHL1, with Antifibrotic Activity” (Journal of the American Chemical Society, 2020)
“And” between values parts separate entries of the source, which are not always exact repeats. Equal entries are not always repeated.

Key:
Assay in all cases: In-cell proteome-wide competitive ABPP, HEK293: other DUBs and proteins
[1] = biological target: T1, DUBs and other proteins in HEK293 cells (Homo sapiens, UniProt Q9Y5K5); details: replicates A-C; for Log2 reporter intensity values: UCHL5: competition with ABP 2, DMSO substract (FC); for Log2 reporter intensity values: UCHL5, DMSO subtracted
T1 sequence (Q9Y5K5 1-329): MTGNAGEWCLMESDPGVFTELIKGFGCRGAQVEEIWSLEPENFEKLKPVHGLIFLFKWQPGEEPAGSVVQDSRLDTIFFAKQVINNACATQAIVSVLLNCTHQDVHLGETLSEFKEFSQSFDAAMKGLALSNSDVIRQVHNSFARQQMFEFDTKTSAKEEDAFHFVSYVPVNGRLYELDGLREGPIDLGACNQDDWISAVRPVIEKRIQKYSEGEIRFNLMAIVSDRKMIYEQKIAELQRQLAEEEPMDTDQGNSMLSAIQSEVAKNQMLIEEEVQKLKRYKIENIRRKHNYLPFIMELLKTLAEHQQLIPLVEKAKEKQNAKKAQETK

[2] = biological target: DUBs and other proteins in HEK293 cells (Homo sapiens, UniProt Q14694); details: replicates A-C; for Log2 reporter intensity values: USP10: competition with ABP 2, DMSO substract (FC); for Log2 reporter intensity values: USP10, DMSO subtracted
[3] = biological target: DUBs and other proteins in HEK293 cells (Homo sapiens, UniProt Q96BN8); details: replicates A-C; for Log2 reporter intensity values: OTULIN: DMSO substract (FC); for Log2 reporter intensity values: OTULIN, DMSO subtracted
[4] = biological target: DUBs and other proteins in HEK293 cells (Homo sapiens, UniProt O00303); details: for Log2 reporter intensity values, EIF3F: TMT replicates; for Log2 reporter intensity values: EIF3F: competition with ABP 2, DMSO substract (FC); for Log2 reporter intensity values: EIF3F / Log2 reporter intensity values: replicates A-C; for Log2 t-test Difference / Log2 reporter intensity values: EIF3F
[5] = biological target: T2, DUBs and other proteins in HEK293 cells (Homo sapiens, UniProt Q96K76); details: replicates A-C; for Log2 reporter intensity values: USP47: DMSO substract (FC); for Log2 reporter intensity values: USP47, DMSO subtracted
T2 sequence (Q96K76 1-1375): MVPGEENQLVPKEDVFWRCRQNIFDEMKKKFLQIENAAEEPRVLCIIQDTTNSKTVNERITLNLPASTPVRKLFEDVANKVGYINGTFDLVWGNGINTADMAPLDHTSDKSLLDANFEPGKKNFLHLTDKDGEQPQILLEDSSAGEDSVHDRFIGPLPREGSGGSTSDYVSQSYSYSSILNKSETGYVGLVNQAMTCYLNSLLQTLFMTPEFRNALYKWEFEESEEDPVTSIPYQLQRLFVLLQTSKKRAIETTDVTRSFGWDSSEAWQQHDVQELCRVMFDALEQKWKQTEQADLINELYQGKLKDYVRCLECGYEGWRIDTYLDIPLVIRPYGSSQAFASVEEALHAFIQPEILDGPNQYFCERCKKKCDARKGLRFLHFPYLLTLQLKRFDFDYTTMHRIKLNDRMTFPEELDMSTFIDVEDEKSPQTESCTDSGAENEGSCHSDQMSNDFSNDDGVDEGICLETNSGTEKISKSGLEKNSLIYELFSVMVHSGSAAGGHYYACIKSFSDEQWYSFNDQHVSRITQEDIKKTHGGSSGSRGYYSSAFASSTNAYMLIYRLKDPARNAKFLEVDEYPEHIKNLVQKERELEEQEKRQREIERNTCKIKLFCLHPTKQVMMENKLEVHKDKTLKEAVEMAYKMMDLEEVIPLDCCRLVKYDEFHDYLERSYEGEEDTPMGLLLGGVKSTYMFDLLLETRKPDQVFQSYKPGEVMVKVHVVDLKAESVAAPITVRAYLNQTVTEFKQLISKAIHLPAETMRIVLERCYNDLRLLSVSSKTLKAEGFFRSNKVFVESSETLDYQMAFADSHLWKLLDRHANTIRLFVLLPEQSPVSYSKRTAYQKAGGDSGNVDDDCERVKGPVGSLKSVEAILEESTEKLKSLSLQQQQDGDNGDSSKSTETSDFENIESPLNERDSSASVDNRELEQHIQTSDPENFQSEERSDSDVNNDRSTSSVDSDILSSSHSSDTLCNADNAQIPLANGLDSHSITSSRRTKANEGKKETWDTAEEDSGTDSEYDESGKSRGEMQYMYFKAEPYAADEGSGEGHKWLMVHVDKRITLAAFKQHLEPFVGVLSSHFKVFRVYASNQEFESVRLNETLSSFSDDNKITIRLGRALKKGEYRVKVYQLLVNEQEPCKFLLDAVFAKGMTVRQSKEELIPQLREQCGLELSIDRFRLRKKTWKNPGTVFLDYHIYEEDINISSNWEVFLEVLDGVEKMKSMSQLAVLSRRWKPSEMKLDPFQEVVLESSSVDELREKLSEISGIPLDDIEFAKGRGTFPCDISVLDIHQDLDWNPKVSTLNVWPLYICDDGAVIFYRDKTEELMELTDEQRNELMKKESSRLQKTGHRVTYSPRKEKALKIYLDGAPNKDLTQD

[6] = 1 at 1 μM, competition with ABP 2
[7] = 1 at 4 μM, competition with ABP 2

Sequence of DUBs and other proteins in HEK293 cells (Homo sapiens, UniProt Q14694) (Q14694 whole entry): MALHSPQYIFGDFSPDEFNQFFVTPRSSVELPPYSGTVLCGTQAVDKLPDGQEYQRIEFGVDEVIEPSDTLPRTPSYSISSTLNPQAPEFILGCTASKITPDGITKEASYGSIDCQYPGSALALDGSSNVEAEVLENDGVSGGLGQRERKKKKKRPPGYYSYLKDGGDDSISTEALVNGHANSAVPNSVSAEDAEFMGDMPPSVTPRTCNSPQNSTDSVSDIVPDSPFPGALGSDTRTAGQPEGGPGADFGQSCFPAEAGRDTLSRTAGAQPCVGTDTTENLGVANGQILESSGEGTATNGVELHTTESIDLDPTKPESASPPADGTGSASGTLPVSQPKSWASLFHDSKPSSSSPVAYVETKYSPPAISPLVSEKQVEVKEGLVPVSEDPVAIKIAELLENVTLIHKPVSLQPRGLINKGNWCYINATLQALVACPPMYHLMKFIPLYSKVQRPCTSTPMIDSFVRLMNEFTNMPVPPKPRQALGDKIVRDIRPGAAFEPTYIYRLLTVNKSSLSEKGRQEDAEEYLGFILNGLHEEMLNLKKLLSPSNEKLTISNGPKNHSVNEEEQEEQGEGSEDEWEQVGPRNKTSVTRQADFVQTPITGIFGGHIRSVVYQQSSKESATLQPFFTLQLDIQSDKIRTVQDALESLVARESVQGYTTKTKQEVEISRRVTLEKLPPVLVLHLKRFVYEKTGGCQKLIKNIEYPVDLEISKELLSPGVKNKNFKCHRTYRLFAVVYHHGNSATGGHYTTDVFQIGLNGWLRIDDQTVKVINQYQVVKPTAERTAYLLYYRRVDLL
Sequence of DUBs and other proteins in HEK293 cells (Homo sapiens, UniProt O00303) (O00303 whole entry): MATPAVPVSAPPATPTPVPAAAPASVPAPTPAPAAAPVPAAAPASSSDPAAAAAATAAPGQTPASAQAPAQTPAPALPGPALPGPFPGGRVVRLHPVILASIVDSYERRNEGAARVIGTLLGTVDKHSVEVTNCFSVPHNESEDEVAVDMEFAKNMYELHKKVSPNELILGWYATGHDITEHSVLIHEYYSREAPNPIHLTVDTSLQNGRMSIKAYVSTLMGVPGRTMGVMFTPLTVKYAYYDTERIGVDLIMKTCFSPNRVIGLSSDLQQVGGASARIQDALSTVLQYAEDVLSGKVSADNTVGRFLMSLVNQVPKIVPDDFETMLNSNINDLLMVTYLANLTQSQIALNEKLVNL
Sequence of DUBs and other proteins in HEK293 cells (Homo sapiens, UniProt Q96BN8) (Q96BN8 whole entry): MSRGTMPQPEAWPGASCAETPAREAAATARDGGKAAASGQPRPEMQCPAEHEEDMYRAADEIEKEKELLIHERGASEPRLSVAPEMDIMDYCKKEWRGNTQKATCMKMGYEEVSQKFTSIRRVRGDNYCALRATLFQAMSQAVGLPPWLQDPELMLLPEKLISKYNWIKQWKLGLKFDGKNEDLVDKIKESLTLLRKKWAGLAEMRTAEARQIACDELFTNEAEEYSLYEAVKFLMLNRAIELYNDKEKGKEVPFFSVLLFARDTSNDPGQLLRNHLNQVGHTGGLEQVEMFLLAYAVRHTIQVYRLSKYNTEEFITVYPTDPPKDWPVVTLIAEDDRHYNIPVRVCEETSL

In the case of `N#CN1CCC[C@H]1C(=O)N1CCc2c(-c3c[nH]c4ncccc34)cccc21` [Compound 1], the “Log2 reporter intensity values: UCHL5” value ([1]; 1 at 1 μM) is reported as 1.121 and 1.059 and 1.084, the “Log2 reporter intensity values: UCHL5” value ([1]; 1 at 4 μM) is reported as 1.068 (2×) and 1.07 and the “Log2 reporter intensity values” ([1]; 1_1 μM) is reported as 0.1208 and 0.05828 and 0.08364. The “Log2 reporter intensity values” ([1]; 1_4 μM) was 0.06718 and 0.06755 and 0.06936, the “Log2 reporter intensity values” ([1]; 1 at 1 μM) was 0.1653 and 0.08265 and 0.1168 and the “Log2 reporter intensity values” ([1]; 1 at 4 μM) was 0.09472 and 0.09521 and 0.09766. The “Log2 reporter intensity values: USP10” value ([2]; 1 at 1 μM) was 0.8161 and 0.9562 and 0.9573, the “Log2 reporter intensity values: USP10” value ([2]; 1 at 4 μM) was 0.9286 and 0.9489 and 0.874 and the “Log2 reporter intensity values” ([2]; 1_1 μM) was -0.1848 and -0.04476 and -0.04368. For the same compound, the “Log2 reporter intensity values” ([2]; 1_4 μM) was -0.07234 and -0.05211 and -0.1269, the “Log2 reporter intensity values” ([2]; 1 at 1 μM) was -0.2931 and -0.06461 and -0.06297 and the “Log2 reporter intensity values” ([2]; 1 at 4 μM) was -0.1068 and -0.07574 and -0.1942. The “Log2 reporter intensity values: OTULIN” value [3, 6] was 1.158 and 1.113 and 1.037, the “Log2 reporter intensity values: OTULIN” value [3, 7] was 1.068 and 1.004 and 1.156 and the “Log2 reporter intensity values” ([3]; 1_1 μM) was 0.1579 and 0.1121 and 0.03603. For the same compound, the “Log2 reporter intensity values” ([3]; 1_4 μM) was 0.06743 and 0.003361 and 0.1557, the “Log2 reporter intensity values” ([3]; 1 at 1 μM) was 0.2122 and 0.154 and 0.0518 and the “Log2 reporter intensity values” ([3]; 1 at 4 μM) was 0.09485 and 0.0056 and 0.2094. For the same compound, the “Log2 reporter intensity values, EIF3F” value ([4]; 1 μM 1 (60 min) + 20 nM ABP 2 (10 min), All values) was -0.05755 and -0.0632 and -0.06224, the “Log2 reporter intensity values, EIF3F” value ([4]; 1 μM 1 (60 min) + 20 nM ABP 2 (10 min), DMSO subtracted) was -0.048 and -0.05365 and -0.05269 and the “Log2 reporter intensity values, EIF3F” value ([4]; 4 μM 1 (60 min) + 20 nM ABP 2 (10 min), All values) was 0.06402 and -0.06596 and 0.05418. For the same compound, the “Log2 reporter intensity values, EIF3F” value ([4]; 4 μM 1 (60 min) + 20 nM ABP 2 (10 min), DMSO subtracted) was 0.07357 and -0.05641 and 0.06373, the “Log2 reporter intensity values: EIF3F” value ([4]; 1 at 1 μM) was 0.9673 and 0.9635 and 0.9641 and the “Log2 reporter intensity values: EIF3F” value ([4]; 1 at 4 μM) was 1.052 and 0.9617 and 1.045. The “Log2 t-test Difference” value ([4]; 1 - 1 μM) was -0.1421, the “Log2 t-test Difference” value ([4]; 1 - 4 μM) was -0.06374 and the “Log2 reporter intensity values” ([4]; 1_1 μM, DMSO subtracted) was -0.03315 and -0.03692 and -0.03628. The “Log2 reporter intensity values” ([4]; 1_4 μM, DMSO subtracted) was 0.0519 and -0.03877 and 0.04475, the “Log2 reporter intensity values” ([4]; 1 at 1 μM, DMSO subtracted) was -0.048 and -0.05365 and -0.05269 and the “Log2 reporter intensity values” ([4]; 1 at 4 μM, DMSO subtracted) was 0.07357 and -0.05641 and 0.06373. For the same compound, the “Log2 reporter intensity values: USP47” value [5, 6] was 0.973 and 1.08 and 1.022, the “Log2 reporter intensity values: USP47” value [5, 7] was 1.072 and 1.012 and 0.9583 and the “Log2 reporter intensity values” ([5]; 1_1 μM) was -0.02716 and 0.07955 and 0.02151. The “Log2 reporter intensity values” ([5]; 1_4 μM) was 0.07173 and 0.01208 and -0.04184, the “Log2 reporter intensity values” ([5]; 1 at 1 μM) was -0.03956 and 0.1106 and 0.03085 and the “Log2 reporter intensity values” ([5]; 1 at 4 μM) was 0.1001 and 0.01747 and -0.0615.
`C#Cc1cnc2[nH]cc(-c3cccc4c3CCN4C(=O)[C@@H]3CCCN3C#N)c2c1` [Compound 2] was tested, and the “Log2 reporter intensity values: OTULIN” value ([3]; 20 nM ABP 2 alone) was 0.9844, the “Log2 reporter intensity values” ([3]; 20 nM ABP 2) was 0.01067 and 0.1122 and -0.02265 and 0.006896 and 0.08034 and -0.01611 and the “Log2 reporter intensity values: USP47” value ([5]; 20 nM ABP 2 alone) was 0.9076 and 0.9784 and 0.8828. For the same compound, the “Log2 reporter intensity values” ([5]; 20 nM ABP 2) was -0.1398 and -0.03153 and -0.1799 and -0.09247 and -0.02173 and -0.1173.
